Assay results taken from patent US9636338B2, “Phenyl-dihydropyridine derivatives as inhibitors of aldosterone synthase” (Hoffmann-La Roche Inc., priority 2013, dated 2017).

Columns and labels:
human CYP11B1 = human CYP11B1 (Homo sapiens (Human), UniProt P15538); experiment: G-402 cellular enzyme assay, human CYP11B1 (cortisol release, HTRF); format: cell-based; details: G-402 cells expressing human CYP11B1; 1 μM Deoxycortisol
Description: (§1) Herein we identified the use of the G-402 cell line as a host cell to ectopically express (transiently or stably) enzymes of the CYP11 family. Specifically we developed stable G-402 cells expressing ectopically human CYP11B1, human CYP11B2, human CYP11A1, cynmolgus CYP11B1 or cynomolgus CYP11B2 enzyme activity. Importantly the identified cell line G-402 expresses co-factors (adrenodoxin and adrenodoxin reductase) important for the activity of the CYP11 family and no relevant enzyme activity of the CYP11 family (in comparison to H295R cells) was detected in these cells. Therefore the G-402 cell line is uniquely suited as a host cell for the ectopic expression of enzymes from the CYP11 family. G-402 cells can be obtained from ATCC (CRL-1440) and were originally derived from a renal leiomyoblastoma.
(§2) The expression plasmids contains the ORF for either human/cyno CYP11B1 or CYP11B2 under the control of a suitable promoter (CMV-promoter) and a suitable resistance marker (neomycin). Using standard techniques the expression plasmid is transfected into G-402 cells and these cells are then selected for expressing the given resistance markers. Individual cell-clones are then selected and assessed for displaying the desired enzymatic activity using 11-Deoxycorticosterone (Cyp11B2) or 11-Deoxycortisol (Cyp11B1) as a substrate.
(§3) G-402 cells expressing CYP11 constructs were established as described above and maintained in McCoy's 5a Medium Modified, ATCC Catalog No. 30-2007 containing 10% FCS and 400 μg/ml G418 (Geneticin) at 37° C. under an atmosphere of 5% CO2/95% air. Cellular enzyme assays were performed in DMEM/F12 medium containing 2.5% charcoal treated FCS and appropriate concentration of substrate (0.3-10 uM 11-Deoxycorticosterone, 11-Deoxycortisol or Corticosterone). For assaying enzymatic activity, cells were plated onto 96 well plates and incubated for 16 h. An aliquot of the supernatant is then transferred and analyzed for the concentration of the expected product (Aldosterone for CYP11B2; Cortisol for CYP11B1). The concentrations of these steroids can be determined using HTRF assays from CisBio analyzing either Aldosterone or Cortisol.
(§4) Inhibition of the release of produced steroids can be used as a measure of the respective enzyme inhibition by test compounds added during the cellular enzyme assay. The dose dependent inhibition of enzymatic activity by a compound is calculated by means of plotting added inhibitor concentrations (x-axes) vs. measured steroid/product level (y-axes). The inhibition is then calculated by fitting the following 4-parameter sigmoidal function (Morgan-Mercer-Flodin (MMF) model) to the raw data points using the least squares method:
(§5) [formula] wherein, A is the maximum y value, B is the EC50 factor determined using XLFit, C is the minimum y value and D is the slope value.
(§6) EC50 values for compounds claimed herein were tested with the G402-based assay system described. Cyp11B2 enzyme activity was tested in presence of 1 μM Deoxycorticosterone and variable amounts of inhibitors; Cyp11B1 enzyme activity was tested in presence of 1 μM Deoxycortisol and variable amounts of inhibitors.

CYP11B2 = CYP11B2 (Homo sapiens (Human), UniProt P19099); experiment: G-402 cellular enzyme assay, human CYP11B2 (aldosterone release, HTRF); format: cell-based; details: G-402 cells expressing human CYP11B2; 1 μM Deoxycorticosterone
Description: as §1, §2, §3, §4, §5, §6

[1] = rat CKD model, cited from earlier work; for plasma aldosterone: FAD286 4 weeks of treatment, spironolactone 4 and 8 weeks; for angiotensin II and salt-stimulated PAI-1 mRNA expression: aorta and heart

Sequence of CYP11B2 (P19099 25-503): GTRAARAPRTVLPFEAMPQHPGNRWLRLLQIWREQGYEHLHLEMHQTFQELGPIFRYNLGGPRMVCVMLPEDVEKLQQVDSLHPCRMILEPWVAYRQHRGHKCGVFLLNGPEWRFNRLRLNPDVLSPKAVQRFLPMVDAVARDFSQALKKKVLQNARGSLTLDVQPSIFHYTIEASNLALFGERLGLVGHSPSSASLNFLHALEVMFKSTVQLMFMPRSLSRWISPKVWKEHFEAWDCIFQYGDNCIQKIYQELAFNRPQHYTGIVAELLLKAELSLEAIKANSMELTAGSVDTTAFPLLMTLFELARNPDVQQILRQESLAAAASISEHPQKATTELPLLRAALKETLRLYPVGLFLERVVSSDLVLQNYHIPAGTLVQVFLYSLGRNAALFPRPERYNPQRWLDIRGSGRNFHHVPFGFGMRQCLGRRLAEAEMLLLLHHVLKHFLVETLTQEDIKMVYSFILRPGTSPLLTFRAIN
Sequence of human CYP11B1 (P15538 25-503): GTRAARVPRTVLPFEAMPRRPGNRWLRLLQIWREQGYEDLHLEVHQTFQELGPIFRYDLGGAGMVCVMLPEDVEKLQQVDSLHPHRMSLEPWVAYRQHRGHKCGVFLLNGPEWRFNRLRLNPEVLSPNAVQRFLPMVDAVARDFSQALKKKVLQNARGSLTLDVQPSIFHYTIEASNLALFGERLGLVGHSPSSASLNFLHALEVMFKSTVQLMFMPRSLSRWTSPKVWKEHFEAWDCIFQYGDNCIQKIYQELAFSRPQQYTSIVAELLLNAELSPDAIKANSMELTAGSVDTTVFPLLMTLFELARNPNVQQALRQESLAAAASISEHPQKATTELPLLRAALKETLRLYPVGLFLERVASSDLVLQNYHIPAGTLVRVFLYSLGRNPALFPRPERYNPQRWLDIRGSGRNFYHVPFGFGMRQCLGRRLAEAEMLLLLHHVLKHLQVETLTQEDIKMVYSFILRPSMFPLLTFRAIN

Row | Structure (SMILES) | EC50 (human CYP11B1) [µM] | EC50 (CYP11B2) [nM] | plasma aldosterone [1] | angiotensin II and salt-stimulated PAI-1 mRNA expression [1]
1 | CC(C)N(C)C(=O)CC1CCc2cncc(-c3ccc(C(F)(F)F)cc3F)c21 (racemic) [Example 21, (rac)-2-[4-[2-Fluoro-4-(trifluoromethyl)phenyl]-6,7-dihydro-5H-cyclopenta[c]pyridin-5-yl]-N-isopropyl-N-methyl-acetamide] | 8.36 | 413 | – | –
2 | CNC(=O)CC1CCc2cncc(-c3ccc(C(F)(F)F)c(F)c3)c21 (racemic) [Example 12, (rac)-2-[4-[3-Fluoro-4-(trifluoromethyl)phenyl]-6,7-dihydro-5H-cyclopenta[c]pyridin-5-yl]-N-methyl-acetamide] | 1.03 | 113 | – | –
3 | NC1CCc2cncc(-c3ccc(C(F)(F)F)c(F)c3)c21 (racemic) [Example 1, (rac)-4-(3-Fluoro-4-(trifluoromethyl)phenyl)-6,7-dihydro-5H-cyclopenta[c]pyridin-5-amine] | 5.35 | 263 | – | –
4 | CCN(C)C(=O)CC1CCc2cncc(-c3ccc(C(F)(F)F)cc3F)c21 (racemic) [Example 20, (rac)-N-Ethyl-2-[4-[2-fluoro-4-(trifluoromethyl)phenyl]-6,7-dihydro-5H-cyclopenta[c]pyridin-5-yl-]-N-methyl-acetamide] | 6 | 213 | – | –
5 | CCOC(=O)CC1CCc2cncc(-c3ccc(C(F)(F)F)c(F)c3)c21 (racemic) [Example 11, (rac)-Ethyl 2-[4-[3-fluoro-4-(trifluoromethyl)phenyl]-6,7-dihydro-5H-cyclopenta[c]pyridin-5-yl]acetate] | 0.367 | 64 | – | –
6 | CC1(O)CCc2cncc(-c3ccc(C(F)(F)F)c(F)c3)c21 (racemic) [Example 3, (rac)-4-(3-Fluoro-4-(trifluoromethyl)phenyl)-5-methyl-6,7-dihydro-5H-cyclopenta[c]pyridin-5-ol] | 2.34 | 45 | – | –
7 | CC(=O)S[C@@H]1CC2=CC(=O)CC[C@]2(C)[C@H]2CC[C@@]3(C)[C@@H](CC[C@@]34CCC(=O)O4)[C@H]12 [spironolactone] | – | – | increased | enhanced
8 | OC1(c2ccccc2)CCc2cncc(-c3ccc(C(F)(F)F)cc3F)c21 (racemic) [Example 8, (rac)-4-[2-Fluoro-4-(trifluoromethyl)phenyl]-5-phenyl-6,7-dihydrocyclopenta[c]pyridin-5-ol] | 7.38 | 33 | – | –
9 | C[C@H]1CCCN1C(=O)CC1CCc2cncc(-c3ccc(C(F)(F)F)cc3F)c21 (mixture of isomers) [Example 24, (rac)-2-[4-[2-Fluoro-4-(trifluoromethyl)phenyl]-6,7-dihydro-5H-cyclopenta[c]pyridin-5-yl]-1-[(2S)-2-methylpyrrolidin-1-yl]ethanone] | 3.97 | 205 | – | –
10 | OC1(c2ccccc2)CCc2cncc(-c3ccc(C(F)(F)F)c(F)c3)c21 (racemic) [Example 4, (rac)-4-(3-Fluoro-4-(trifluoromethyl)phenyl)-5-phenyl-6,7-dihydro-5H-cyclopenta[c]pyridin-5-ol] | 1.96 | 50 | – | –
11 | OC1CCc2cncc(-c3ccc(C(F)(F)F)c(F)c3)c21 (racemic) [Example 2, (rac)-4-(3-Fluoro-4-(trifluoromethyl)phenyl)-6,7-dihydro-5H-cyclopenta[c]pyridin-5-ol] | 2.34 | 69 | – | –
12 | CCCNC(=O)CC1CCc2cncc(-c3ccc(C(F)(F)F)c(F)c3)c21 (racemic) [Example 14, (rac)-2-[4-[3-Fluoro-4-(trifluoromethyl)phenyl]-6,7-dihydro-5H-cyclopenta[c]pyridin-5-yl]-N-propyl-acetamide] | 2.6 | 1530 | – | –
13 | N#Cc1ccc([C@H]2CCCc3cncn32)cc1 [FAD286] | – | – | reduced | not FAD286 enhanced
14 | OC1(c2ccccc2)CCc2cncc(-c3ccc(C(F)(F)F)cc3F)c21 (single isomer, unassigned; (-)) [Example 10, (−)-4-[2-Fluoro-4-(trifluoromethyl)phenyl]-5-phenyl-6,7-dihydrocyclopenta[c]pyridin-5-ol] | 8.13 | 63 | – | –
15 | CN(C(=O)CC1CCc2cncc(-c3ccc(C(F)(F)F)cc3F)c21)C1CC1 (racemic) [Example 22, (rac)-N-Cyclopropyl-2-[4-[2-fluoro-4-(trifluoromethyl)phenyl]-6,7-dihydro-5H-cyclopenta[c]pyridin-5-yl-]-N-methyl-acetamide] | 9.44 | 957 | – | –
16 | OC1CCc2cncc(-c3ccc(C(F)(F)F)cc3F)c21 (racemic) [Example 5, (rac)-4-[2-Fluoro-4-(trifluoromethyl)phenyl]-6,7-dihydro-5H-cyclopenta[c]pyridin-5-ol] | 3.33 | 133 | – | –
17 | O=C(CC1CCc2cncc(-c3ccc(C(F)(F)F)c(F)c3)c21)Nc1ccon1 (racemic) [Example 17, (rac)-2-[4-[3-Fluoro-4-(trifluoromethyl)phenyl]-6,7-dihydro-5H-cyclopenta[c]pyridin-5-yl]-N-isoxazol-3-yl-acetamide] | 0.311 | 100 | – | –
18 | CCN(C(=O)CC1CCc2cncc(-c3ccc(C(F)(F)F)cc3F)c21)C1CC1 (racemic) [Example 23, (rac)-N-Cyclopropyl-N-ethyl-2-[4-[2-fluoro-4-(trifluoromethyl)phenyl]-6,7-dihydro-5H-cyclopenta[c]pyridin-5-yl]acetamide] | 8.61 | 487 | – | –
19 | O=C(CC1CCc2cncc(-c3ccc(C(F)(F)F)c(F)c3)c21)N1CCOCC1 (racemic) [Example 16, (rac)-2-[4-[3-Fluoro-4-(trifluoromethyl)phenyl]-6,7-dihydro-5H-cyclopenta[c]pyridin-5-yl]-1-morpholino-ethanone] | 3.63 | 1020 | – | –
20 | CC(C)C1(O)CCc2cncc(-c3ccc(C(F)(F)F)cc3F)c21 (racemic) [Example 7, (rac)-4-[2-Fluoro-4-(trifluoromethyl)phenyl]-5-isopropyl-6,7-dihydrocyclopenta[c]pyridin-5-ol] | 14.4 | 740 | – | –
21 | O=C(CC1CCc2cncc(-c3ccc(C(F)(F)F)c(F)c3)c21)NCC1CC1 (racemic) [Example 13, (rac)-N-(Cyclopropylmethyl)-2-[4-[3-fluoro-4-(trifluoromethyl)phenyl]-6,7-dihydro-5H-cyclopenta[c]pyridin-5-yl]acetamide] | 1.15 | 60 | – | –
22 | O=C(CC1CCc2cncc(-c3ccc(C(F)(F)F)c(F)c3)c21)N1CCCCC1 (racemic) [Example 15, (rac)-2-[4-[3-Fluoro-4-(trifluoromethyl)phenyl]-6,7-dihydro-5H-cyclopenta[c]pyridin-5-yl]-1-(1-piperidyl)ethanone] | > 30 | 832 | – | –
23 | CC1(O)CCc2cncc(-c3ccc(C(F)(F)F)cc3F)c21 (racemic) [Example 6, (rac)-4-[2-Fluoro-4-(trifluoromethyl)phenyl]-5-methyl-6,7-dihydrocyclopenta[c]pyridin-5-ol] | > 30 | 739 | – | –
24 | OC1(c2ccccc2)CCc2cncc(-c3ccc(C(F)(F)F)cc3F)c21 (single isomer, unassigned; (+)) [Example 9, (+)-4-[2-Fluoro-4-(trifluoromethyl)phenyl]-5-phenyl-6,7-dihydrocyclopenta[c]pyridin-5-ol] | 35 | 742 | – | –
25 | O=C(CC1CCc2cncc(-c3ccc(C(F)(F)F)cc3F)c21)N1CCCC1 (racemic) [Example 19, (rac)-2-[4-[2-Fluoro-4-(trifluoromethyl)phenyl]-6,7-dihydro-5H-cyclopenta[c]pyridin-5-yl]-1-pyrrolidin-1-yl-ethanone] | 8.47 | 442 | – | –
26 | O=C(CC1CCc2cncc(-c3ccc(C(F)(F)F)c(F)c3)c21)Nc1cc[nH]n1 (racemic) [Example 18, (rac)-2-[4-[3-Fluoro-4-(trifluoromethyl)phenyl]-6,7-dihydro-5H-cyclopenta[c]pyridin-5-yl-]-N-(1H-pyrazol-3-yl)acetamide] | 0.282 | 597 | – | –
